Here are results for three compounds from PMC4488857 (PLoS ONE, 2015).

Experiment [1] deals with T1, multidrug resistance-associated protein 2 (MRP2) (Homo sapiens, UniProt Q92887). Description: inhibition of ATP-dependent platinum uptake (oxaliplatin […]) in MRP2-expressing membrane vesicles, ICPMS; […] reduction at […]. The class given is cell-based. Further details: gene ABCC2; human MRP2 in inside-out Sf9 membrane vesicles.
Experiment [2] has as its target T1, multidrug resistance-associated protein 2 (MRP2). The experiment can be described thus: inhibition of ATP-dependent platinum uptake (oxaliplatin […]) in MRP2-expressing membrane vesicles, ICPMS. Format: biochemical. Further details: gene ABCC2; human MRP2 in inside-out Sf9 membrane vesicles.
Experiment [3] has the same target. Further details: gene ABCC2.

T1 sequence (Q92887 whole entry): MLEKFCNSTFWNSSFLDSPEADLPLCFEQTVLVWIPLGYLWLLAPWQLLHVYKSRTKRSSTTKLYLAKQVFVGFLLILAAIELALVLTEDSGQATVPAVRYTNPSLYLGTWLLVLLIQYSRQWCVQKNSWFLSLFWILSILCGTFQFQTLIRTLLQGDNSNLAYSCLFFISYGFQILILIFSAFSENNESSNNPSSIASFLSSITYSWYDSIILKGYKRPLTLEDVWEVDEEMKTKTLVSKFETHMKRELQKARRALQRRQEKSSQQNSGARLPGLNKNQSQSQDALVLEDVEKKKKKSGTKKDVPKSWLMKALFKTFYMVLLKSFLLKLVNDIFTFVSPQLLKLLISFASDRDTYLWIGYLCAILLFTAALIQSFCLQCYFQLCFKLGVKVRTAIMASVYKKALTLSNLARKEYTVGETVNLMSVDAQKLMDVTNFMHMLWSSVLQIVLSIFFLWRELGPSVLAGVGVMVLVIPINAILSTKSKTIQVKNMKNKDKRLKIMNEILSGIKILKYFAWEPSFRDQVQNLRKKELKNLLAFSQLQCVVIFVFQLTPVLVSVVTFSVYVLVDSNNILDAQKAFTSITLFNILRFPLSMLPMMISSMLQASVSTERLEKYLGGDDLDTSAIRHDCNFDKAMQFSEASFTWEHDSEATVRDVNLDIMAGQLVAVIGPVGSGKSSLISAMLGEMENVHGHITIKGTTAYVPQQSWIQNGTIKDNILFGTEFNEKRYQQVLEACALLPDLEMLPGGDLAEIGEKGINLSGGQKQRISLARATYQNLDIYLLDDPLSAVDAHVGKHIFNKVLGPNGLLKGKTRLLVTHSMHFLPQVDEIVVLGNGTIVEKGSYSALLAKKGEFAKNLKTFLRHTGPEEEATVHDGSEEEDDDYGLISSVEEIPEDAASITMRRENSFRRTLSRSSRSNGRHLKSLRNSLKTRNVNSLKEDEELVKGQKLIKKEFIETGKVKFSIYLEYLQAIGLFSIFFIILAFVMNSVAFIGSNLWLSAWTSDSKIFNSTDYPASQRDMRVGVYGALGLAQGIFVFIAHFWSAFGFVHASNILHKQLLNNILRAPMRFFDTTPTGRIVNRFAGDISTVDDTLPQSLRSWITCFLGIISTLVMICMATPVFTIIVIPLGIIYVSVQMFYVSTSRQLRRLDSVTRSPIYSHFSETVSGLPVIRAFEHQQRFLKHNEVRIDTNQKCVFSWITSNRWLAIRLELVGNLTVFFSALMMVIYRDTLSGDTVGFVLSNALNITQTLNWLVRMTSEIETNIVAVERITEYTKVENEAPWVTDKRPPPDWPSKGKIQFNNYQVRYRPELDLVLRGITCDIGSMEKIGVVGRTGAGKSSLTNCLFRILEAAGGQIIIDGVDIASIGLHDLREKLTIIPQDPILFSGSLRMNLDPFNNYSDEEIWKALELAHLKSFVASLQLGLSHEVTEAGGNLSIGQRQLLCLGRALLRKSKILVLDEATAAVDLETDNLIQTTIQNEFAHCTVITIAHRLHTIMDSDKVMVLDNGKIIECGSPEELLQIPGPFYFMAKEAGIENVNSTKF

In turn, `CN(C)C(=O)CCSC(SCCC(=O)O)c1cccc(/C=C/c2ccc3ccc(Cl)cc3n2)c1` (stereo not drawn) [MK571] gave an inhibition at 100 µM in experiment [1] of 96%.

In experiment [2], `O=c1c(O)c(-c2cc(O)c(O)c(O)c2)oc2cc(O)cc(O)c12` [myricetin] showed a half-inhibitory concentration (IC50) of 10 to 100 µM.

For the compound `O=C1[O][Pt]2([NH][C@@H]3CCCC[C@H]3[NH]2)[O]C1=O` [oxaliplatin], the Michaelis-Menten constant (Km) in experiment [3] is 301 µM.
